Assay type in all cases: functional
What all share (settings): time 16-20 hrs

Test [1] deals with Staphylococcus aureus. Kind of test: Antibacterial activity against Staphylococcus aureus assessed as inhibition of bacterial growth incubated for 16 to 20 hrs by Mueller-Hinton broth based two-fold serial dilution method.
Test [2] deals with Escherichia coli. Kind of test: Antibacterial activity against TolC-deficient Escherichia coli assessed as inhibition of bacterial growth incubated for 16 to 20 hrs by Mueller-Hinton broth based two-fold serial dilution method.
Test [3] has as its system Bacillus subtilis. Kind of test: Antibacterial activity against Bacillus subtilis E168 assessed as inhibition of bacterial growth incubated for 16 to 20 hrs by Mueller-Hinton broth based two-fold serial dilution method.

Values after ≈ are worked out from the molar mass of the structure shown.

Usually MIC stands for the smallest concentration in the dilution series that meets the test's criterion for growth inhibition. With `CC[C@]1(O)CC(=O)c2c(cc3cccc(O)c3c2O)[C@H]1C(C)=O`, the minimum inhibitory concentration (MIC) worked out at 2 µg/mL (≈ 6.36 µM) in test [1], 32 µg/mL (≈ 102 µM) in test [2] and 32 µg/mL (≈ 102 µM) in test [3].
In the case of `NC[C@H]1O[C@H](O[C@H]2[C@H](O)[C@@H](O[C@H]3O[C@H](CO)[C@@H](O)[C@H](N)[C@H]3O)[C@H](N)C[C@@H]2N)[C@H](O)[C@@H](O)[C@@H]1O` [KANAMYCIN], the figures for the MIC in test [1], in test [2] and in test [3] were 1 µg/mL (≈ 2.06 µM), 2 µg/mL (≈ 4.13 µM) and 2 µg/mL (≈ 4.13 µM), respectively.

(Values after ChEMBL document CHEMBL5252576, “Stictamycin, an Aromatic Polyketide Antibiotic Isolated from a New Zealand Lichen-Sourced Streptomyces Species” (2023).)
